# According to publication PMC1950558 (Nucleic Acids Research, 2007):
# Where two headings read alike, the source gives them in different places.
# Assays:
# [1] = target: human AMP kinase 2 (hAK2, mitochondrial adenylate kinase) (Homo sapiens, UniProt P54819); assay: coupled spectrophotometric NMP kinase assay, hAK2; conditions: for phosphorylation (in words): hAK2; for Km: hAK2, 37°C, 1 mM ATP, – = Non detectable
# [2] = target: T1, human AMP kinase 1 (hAK1, cytosolic adenylate kinase) (Homo sapiens, UniProt P00568); assay: coupled spectrophotometric NMP kinase assay, hAK1; assay type: biochemical; conditions: for phosphorylation (in words): hAK1; for Km: hAK1, 37°C, 1 mM ATP, – = Non detectable
# T1 sequence (P00568 1-194): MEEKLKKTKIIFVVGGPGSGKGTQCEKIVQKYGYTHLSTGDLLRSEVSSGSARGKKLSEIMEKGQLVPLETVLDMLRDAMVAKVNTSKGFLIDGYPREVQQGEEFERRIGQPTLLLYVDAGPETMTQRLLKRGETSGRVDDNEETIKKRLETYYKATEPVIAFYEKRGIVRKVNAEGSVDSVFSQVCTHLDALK
# [3] = target: T2, human UMP-CMP kinase (hUCK) (Homo sapiens, UniProt P30085); assay: coupled spectrophotometric NMP kinase assay, hUCK; assay type: biochemical; conditions: for Km: 37°C, 1 mM ATP; for Relative Vmax: relative to kcat of D-CMP (100 = kcat 130 s^−1)
# T2 sequence (P30085 1-196): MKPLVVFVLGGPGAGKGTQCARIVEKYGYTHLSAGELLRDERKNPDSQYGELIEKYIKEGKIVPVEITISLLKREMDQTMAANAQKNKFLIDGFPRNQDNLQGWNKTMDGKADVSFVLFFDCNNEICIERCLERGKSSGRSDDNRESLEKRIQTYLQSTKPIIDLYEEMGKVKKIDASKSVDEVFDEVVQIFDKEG
# [4] = target: T3, human dTMP kinase (hTMPK) (Homo sapiens, UniProt P23919); assay: coupled spectrophotometric NMP kinase assay, hTMPK; assay type: biochemical
# T3 sequence (P23919 1-212): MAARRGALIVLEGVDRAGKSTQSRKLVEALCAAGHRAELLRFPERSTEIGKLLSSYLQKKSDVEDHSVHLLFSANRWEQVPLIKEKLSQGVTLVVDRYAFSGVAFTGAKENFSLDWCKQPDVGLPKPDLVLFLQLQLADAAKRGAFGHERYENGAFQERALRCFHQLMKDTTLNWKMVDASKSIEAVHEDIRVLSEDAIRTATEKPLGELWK
# phosphoglycerate kinase = conditions: conversion of L-dTDP into L-dTTP; cited from earlier work
# [5] = test system: Nc1ncnc2c1ncn2[C@@H]1C[C@@H](O)[C@H](COP(=O)(O)O)O1; assay: purified protein, by the assay type; conditions: other: hAK2; – = Non detectable
# [6] = test system: Nc1ccn(C2OC(COP(=O)(O)O)C(O)C2O)c(=O)n1; assay: purified protein, by the assay type; conditions: other: hAK2, 37°C, 1 mM ATP; – = Non detectable; 37.0 °C
# hTK2 = conditions: first phosphorylation of L-dT by hTK2; cited from earlier work
# hdCK = conditions: first phosphorylation of L-dT by hdCK; cited from earlier work
# hTMPK = target: T4, hTMPK (Homo sapiens, UniProt P23919); assay: fluorescence competition assay with MABA-dTDP; assay type: binding
# T4 sequence (P23919 1-212): T3 sequence (P23919 1-212)
# [7] = test system: chronic B hepatitis virus load; conditions: woodchuck, in vivo; less efficiently than L-dC or L-dT; cited from earlier work
# [8] = target: T2, human UMP-CMP kinase (hUCK); conditions: cited from earlier work
# [9] = 2 mM ATP and 2 mM Mg^2+ (Figure 2)
compound,measurement,setting,value
Nc1ccn([C@H]2C[C@H](O)[C@@H](COP(=O)(O)O)O2)c(=O)n1 [D-dCMP],phosphorylation (in words),[1],not substrates
same,phosphorylation (in words),[2],not substrates
same,Km,[3],1000 ± 100 µM
same,Relative Vmax,[3],61 ± 4%
Nc1ncnc2c1ncn2[C@@H]1O[C@H](COP(=O)(O)O)[C@@H](O)[C@H]1O [D-AMP],Km,[1],80 ± 20 µM
same,Km,[2],140 ± 20 µM
[N-]=[N+]=N[C@@H]1[C@H](O)[C@@H](COP(=O)(O)O)O[C@H]1n1ccc(=O)[nH]c1=O [N3-D-dUMP],phosphorylation (in words),[1],did not significantly phosphorylate
same,phosphorylation (in words),[4],did not significantly phosphorylate
same,phosphorylation (in words),[2],did not significantly phosphorylate
same,substrate inhibition at high concentration (in words),[3],did not give rise to substrate inhibition
same,Km,[3],900 ± 200 µM
same,Relative Vmax,[3],89 ± 6%
Cc1cn(C2CC(O)C(COP(=O)(O)OP(=O)(O)O)O2)c(=O)[nH]c1=O [L-dTDP],catalytic efficiency,phosphoglycerate kinase,500 M⁻¹ s⁻¹
"human AMP kinase 2 (hAK2, mitochondrial adenylate kinase) (Homo sapiens)",kcat/Km,[5],70 M⁻¹ s⁻¹
same,Km,[6],6000 ± 1000 µM
O=c1ccn([C@@H]2O[C@H](COP(=O)(O)O)[C@@H](O)[C@H]2O)c(=O)[nH]1 [D-UMP],Km,[2],6000 ± 2000 µM
same,Km,[3],50 ± 10 µM
same,Relative Vmax,[3],100%
Nc1ncnc2c1ncn2[C@H]1C[C@H](O)[C@@H](COP(=O)(O)O)O1 [D-dAMP],Km,[1],210 ± 50 µM
same,Km,[2],1500 ± 300 µM
"Cc1cn([C@@H]2C[C@@H](O)[C@H](CO)O2)c(=O)[nH]c1=O [L-dT, β-L-thymidine]",catalytic efficiency,hTK2,1e+07 M⁻¹ s⁻¹
same,catalytic efficiency,hdCK,16000 M⁻¹ s⁻¹
same,Kd,hTMPK,450 µM
Nc1ncnc2c1ncn2[C@@H]1C[C@@H](O)[C@H](CO)O1 [L-dA],effect on virus load (in words),[7],reduced the virus load
O=c1ccn([C@H]2C[C@H](O)[C@@H](COP(=O)(O)O)O2)c(=O)[nH]1 [D-dUMP],phosphorylation (in words),[1],not substrates
same,Km,[4]; [9],170 ± 10 µM
same,kcat,[4]; [9],4.8 ± 0.6 s⁻¹
same,phosphorylation (in words),[2],not substrates
same,Kd,"hTMPK; read-out: dissociation constant KD, calculated from IC50 with Equation (1)",150 µM
same,Km,[3],1300 ± 300 µM
same,Relative Vmax,[3],5.1 ± 0.5%
Nc1ccn([C@@H]2CS[C@H](COP(=O)(O)O)O2)c(=O)n1 [L-3TCMP],Km,[8]; for comparison,150 ± 20 µM
same,Relative Vmax,[8]; relative to D-CMP,27%
